Values of other authors in patent publication US12274727B2 (Bazelet Health Systems, Inc., priority 2021, dated 2025).

Experiments:
[1] = room temperature
[2] = patch testing in Europe
[3] = after one single oral administration
[4] = not given; remark: listed apart in the source
[5] = not given; remark: listed apart in the source
[6] = not given; remark: listed apart in the source
[7] = with piperine, chronic or single dose regimen

For `CC(C)=CCC1C(=O)C(C(=O)CC(C)C)=C(O)C(O)(CC=C(C)C)C1=O` (stereo not drawn) [Humulone, humulone], the time to degradation [1] is listed as “about 12 weeks”.

For `C=CC(C)(O)CCC=C(C)C` (stereo not drawn) [Linalool], the “people found to be allergic to the oxidized form” value [2] is given as 7%.

In the case of `C=C1CC/C=C(\C)CC[C@@H]2[C@@H]1CC2(C)C` [β-caryophyllene], the Tmax [3] is given as over 1 h.

In the case of `C=C(C)[C@@H]1CCC(C)=C[C@H]1c1c(O)cc(CCCCC)cc1O` [pharmaceutical CBD], the “patients reporting similar AEs” value (another trial) is listed as 86% and the “patients with AEs reported” value (randomized controlled trial in treatment resistant epilepsy) is listed as 93%.

For `C=C(C)[C@@H]1CCC(C)=C[C@H]1c1c(O)cc(CCCCC)cc1O` [CBD, Cannabidiol], the sublingually absorbed ([4]; emulsified (micronized) CBD products) is given as “up to 35%”, the oral bioavailability ([4]; oral, humans) is given as “approximately 6%” and the “bioavailability from smoked product” value ([4]; smoked) is given as “around 31%”. The sublingual bioavailability ([4]; sublingual) was 13-19%, the transdermal absorption ([4]; transdermal) was “about 10%” and the “degradation by light, average values” ([5]; after 30 days) was “up to 15%”. For the same molecule, the “maximum degradation, average values” ([5]; stored at 37° C. for 30 days) was “up to 20%”, the “formation of THC, yield” value ([6]; artificial gastric fluid without pepsin, first study) was 2.9% and the “conversion into THC (both 8 and 9 isomers)” value ([6]; simulated gastric fluid, another study) was “about 49%”. For the same molecule, the “increase in oral bioavailability compared to control group without piperine” value [7] was about 2.5 fold.
